Results: patent US6582351B1, “Imidazopyridinone derivatives and their use as phosphodiesterase inhibitors” (Fujisawa Pharmaceutical Co., Ltd., priority 1999, dated 2003)

SMILES	melting point [°C]
COc1ccc(Cn2c(=O)n([C@H]3CC[C@H](NC=O)CC3)c3ccc(C(F)(F)F)cc32)cc1OC [Example 2(8), 3-(3,4-Dimethoxybenzyl)-1-(trans-4-formamidocyclohexyl)-5-trifluoromethyl-2,3-dihydro-1H-benzimidazol-2-one]	158 to 160.5
COc1ccc(Cn2c(=O)n([C@H]3CC[C@H](NC(N)=O)CC3)c3ccc(C(F)(F)F)cc32)cc1Cl [Example 14(2), 1-(trans-4-Ureidocyclohexyl)-3-(3-chloro-4-methoxybenzyl)-5-trifluoromethyl-2,3-dihydro-1H-benzimidazol-2-one]	164 to 165.5
COc1ccc(Cn2c(=O)n([C@H]3CC[C@H](O)CC3)c3ncc(C#N)cc32)cc1C#N [Example 2(102), 6-Cyano-1-(3-cyano-4-methoxybenzyl)-3-(trans-4-hydroxycyclohexyl)-2,3-dihydro-1H-imidazo[4,5-b]pyridin-2-one]	133 to 134
COc1ccc(Cn2c(=O)n([C@H]3CC[C@H](O)CC3)c3ccc(C(=O)O)cc32)cc1Cl [Example 19(5), 5-Carboxy-3-(3-chloro-4-methoxybenzyl)-1-(trans-4-hydroxycyclohexyl)-2,3-dihydro-1H-benzimidazol-2-one]	275 to 276
COc1ccc(Cn2c(=O)n([C@H](C)CO)c3ncc(C#N)cc32)cc1Cl [Example 4(8), 1-(3-Chloro-4-methoxybenzyl)-6-cyano-3-((R)-2-hydroxy-1-methylethyl)-2,3-dihydro-1H-imidazo[4,5-b]pyridin-2-one]	164 to 165
COc1ccc(Cn2c(=O)n([C@H]3CC[C@H](O)CC3)c3ccc(C(C)=O)cc32)cc1Cl [Example 2(22), 5-Acetyl-3-(3-chloro-4-methoxybenzyl)-1-(trans-4-hydroxycyclohexyl)-2,3-dihydro-1H-benzimidazol-2-one]	209 to 210
COc1ccc(Cn2c(=O)n([C@H]3CC[C@H](O)CC3)c3ccc(C(C)=O)cc32)cc1OC [Example 2(7), 5-Acetyl-3-(3,4-dimethoxybenzyl)-1-(trans-4-hydroxycyclohexyl)-2,3-dihydro-1H-benzimidazol-2-one]	169 to 170
COc1ccc(Cn2c(=O)n([C@H](C)CO)c3ccc(C(F)(F)F)cc32)cc1Cl [Example 4(4), 3-(3-Chloro-4-methoxybenzyl)-1-((R)-2-hydroxy-1-methylethyl)-5-trifluoromethyl-2,3-dihydro-1H-benzimidazol-2-one]	108 to 109
COc1ccc(Cn2c(=O)n([C@H]3CC[C@H](O)CC3)c3ncc(C#N)cc32)cc1C [Example 2(101), 6-Cyano-3-(trans-4-hydroxycyclohexyl)-1-(4-methoxy-3-methylbenzyl)-2,3-dihydro-1H-imidazo[4,5-b]pyridin-2-one]	168 to 169
COc1ccc(Cn2c(=O)n([C@H]3CC[C@H](O)CC3)c3ncc(C(=O)NCc4cccnc4)cc32)cc1Cl [Example 21(2), 1-(3-Chloro-4-methoxybenzyl)-6-(3-picolylcarbamoyl)-3-(trans-4-hydroxycyclohexyl)-2,3-dihydro-1H-imidazo[4,5-b]pyridin-2-one]	134 to 135
COc1ccc(Cn2c(=O)n([C@H]3CC[C@H](O)CC3)c3ccc(C(F)(F)F)cc32)cc1F [Example 2(30), 3-(3-Fluoro-4-methoxybenzyl)-1-(trans-4-hydroxycyclohexyl)-5-trifluoromethyl-2,3-dihydro-1H-benzimidazol-2-one]	178 to 179
COc1ccc(Cn2c(=O)n([C@H]3CC[C@H](O)CC3)c3ccc(C(F)(F)F)cc32)cc1OC [Example 1, 3-(3,4-dimethoxybenzyl)-1-(trans-4-hydroxycyclohexyl)-5-trifluoromethyl-2,3-dihydro-1H-benzimidazol-2-one]	108 to 110
COc1ccc(Cn2c(=O)n(C3CCCC3)c3ncc(C(F)(F)F)cc32)cc1Cl [Example 2(17), 1-(3-Chloro-4-methoxybenzyl)-3-cyclopentyl-6-trifluoromethyl-2,3-dihydro-1H-imidazo[4,5-b]pyridin-2-one]	156 to 157
COc1ccc(Cn2c(=O)n([C@H]3CC[C@H](O)CC3)c3ccc(S(C)(=O)=O)cc32)cc1Cl [Example 4(3), 3-(3-Chloro-4-methoxybenzyl)-1-(trans-4-hydroxycyclohexyl)-5-methylsulfonyl-2,3-dihydro-1H-benzimidazol-2-one]	265 to 265.5
COc1ccc(Cn2c(=O)n([C@H]3CCN(C(=O)OC(C)(C)C)C3)c3ccc(C(F)(F)F)cc32)cc1OC [Example 2(18), 1-((S)-1-tert-Butoxycarbonylpyrrolidin-3-yl)-3-(3,4-dimethoxybenzyl)-5-trifluoromethyl-2,3-dihydro-1H-benzimidazol-2-one]	122 to 122.5
CCCCn1c(=O)n(Cc2ccc(OC)c(Cl)c2)c2cc(C(F)(F)F)ccc21 [Example 2(36), 1-Butyl-3-(3-chloro-4-methoxybenzyl)-5-trifluoromethyl-2,3-dihydro-1H-benzimidazol-2-one]	122 to 124

SMILES	melting point [°C]
COc1ccc(Cn2c(=O)n([C@H]3CCN(C(=O)OC(C)(C)C)C3)c3ccc(C(F)(F)F)cc32)cc1Cl [Example 2(19), 1-((S)-1-tert-Butoxycarbonylpyrrolidin-3-yl)-3-(3-chloro-4-methoxybenzyl)-5-trifluoromethyl-2,3-dihydro-1H-benzimidazol-2-one]	157 to 157.5
COc1ccc(Cn2c(=O)n([C@H]3CC[C@H](NC(=O)OC(C)(C)C)CC3)c3ccc(C(F)(F)F)cc32)cc1Cl [Example 2(99), 1-[trans-4-(N-tert-Butoxycarbonylamino)cyclohexyl]-3-(3-chloro-4-methoxybenzyl)-5-trifluoromethyl-2,3-dihydro-1H-benzimidazol-2-one]	185.5 to 187
COc1ccc(Cn2c(=O)n([C@H]3CC[C@H](O)CC3)c3ncc(C(F)(F)F)cc32)cc1Cl [Example 19(2), 1-(3-Chloro-4-methoxybenzyl)-3-(trans-4-hydroxycyclohexyl)-6-trifluoromethyl-2,3-dihydro-1H-imidazo[4,5-b]pyridin-2-one]	121 to 123
COc1ccc(Cn2c(=O)n(-c3ccc4[nH]cnc4c3)c3ccc(C(F)(F)F)cc32)cc1OC [Example 2(20), 1-(1H-Benzimidazol-5-yl)-3-(3,4-dimethoxybenzyl)-5-trifluoromethyl-2,3-dihydro-1H-benzimidazol-2-one]	174 to 175
COc1ccc(Cn2c(=O)n([C@H]3CC[C@H](O)CC3)c3ccc(C(F)(F)F)cc32)cc1Cl [Example 2(24), 3-(3-Chloro-4-methoxybenzyl)-1-(trans-4-hydroxycyclohexyl)-5-trifluoromethyl-2,3-dihydro-1H-benzimidazol-2-one]	167 to 168
COc1ccc(Cn2c(=O)n([C@H]3CC[C@@H](O)CC3)c3ncc(C#N)cc32)cc1Cl [Example 24, 1-(3-chloro-4-methoxybenzyl)-6-cyano-3-(cis-4-hydroxycyclohexyl)-2,3-dihydro-1H-imidazo[4,5-b]pyridin-2-one]	197 to 198
COc1ccc2c(c1)n(Cc1ccc(OC)c(OC)c1)c(=O)n2[C@H]1CC[C@H](O)CC1 [Example 2(11), 3-(3,4-Dimethoxybenzyl)-1-(trans-4-hydroxycyclohexyl)-5-methoxy-2,3-dihydro-1H-benzimidazol-2-one]	176 to 177
COc1ccc(Cn2c(=O)n([C@H]3CCN(C(=O)OC(C)(C)C)C3)c3ncc(C(F)(F)F)cc32)cc1Cl [Example 2(103), 3-((S)-1-tert-Butoxycarbonylpyrrolidin-3-yl)-1-(3-chloro-4-methoxybenzyl)-6-trifluoromethyl-2,3-dihydro-1H-imidazo[4,5-b]pyridin-2-one]	87 to 89
COc1ccc(Cn2c(=O)n([C@H]3CC[C@H](OC(C)=O)CC3)c3ccc([N+](=O)[O-])cc32)cc1OC [Example 22(1), 1-(trans-4-Acetoxycyclohexyl)-3-(3,4-dimethoxybenzyl)-5-nitro-2,3-dihydro-1H-benzimidazol-2-one]	207 to 207.5
COc1ccc(Cn2c(=O)n(-c3ccc4nc[nH]c4c3)c3ncc(C#N)cc32)cc1Cl [Example 2(104), 3-(Benzimidazol-5-yl)-1-(3-chloro-4-methoxybenzyl)-6-cyano-2,3-dihydro-1H-imidazo[4,5-b]pyridin-2-one]	163 to 166
COc1c(Cl)cc(Cn2c(=O)n([C@H]3CC[C@H](O)CC3)c3ccc([N+](=O)[O-])cc32)cc1Cl [Example 2(26), 3-(3,5-Dichloro-4-methoxybenzyl)-1-(trans-4-hydroxycyclohexyl)-5-nitro-2,3-dihydro-1H-benzimidazol-2-one]	115 to 116
COc1ccc(Cn2c(=O)n(C3CCCC3)c3ncc(C(F)(F)F)cc32)cc1OC [Example 2(13), 3-Cyclopentyl-1-(3,4-dimethoxybenzyl)-6-trifluoromethyl-2,3-dihydro-1H-imidazo[4,5-b]pyridin-2-one]	115 to 116
COc1cc(Cn2c(=O)n(C3CCCC3)c3ccc([N+](=O)[O-])cc32)ccc1Cl [Example 2(2), 3-(4-Chloro-3-methoxybenzyl)-1-cyclopentyl-5-nitro-2,3-dihydro-1H-benzimidazol-2-one]	170 to 171.5
COc1ccc(Cn2c(=O)n(-c3ccc4[nH]ccc4c3)c3ncc(C#N)cc32)cc1Cl [Example 2(105), 1-(3-Chloro-4-methoxybenzyl)-3-(1H-indol-5-yl)-6-cyano-2,3-dihydro-1H-imidazo[4,5-b]pyridin-2-one]	281 to 282
COc1ccc(Cn2c(=O)n([C@H]3CC[C@H](O)CC3)c3ncc(C(F)(F)F)cc32)cc1OC [Example 18, 1-(3,4-dimethoxybenzyl)-3-(trans-4-hydroxycyclohexyl)-6-trifluoromethyl-2,3-dihydro-1H-imidazo[4,5-b]pyridin-2-one]	128 to 130
COc1ccc(Cn2c(=O)n([C@H]3CC[C@H](OC(C)=O)CC3)c3ncc(C(F)(F)F)cc32)cc1OC [Example 2(12), 3-(trans-4-Acetoxycyclohexyl)-1-(3,4-dimethoxybenzyl)-6-trifluoromethyl-2,3-dihydro-1H-imidazo[4,5-b]pyridin-2-one]	130 to 133
